Columns and labels:
HBT 3477 cells = assay: Attachment of HBT 3477 cells to vitronectin; assay type: cell-based, human; conditions: read-out: IC50 for blocking attachment of HBT 3477 cells to vitronectin
Excerpt: Cell Lines. HBT 3477, a human breast adenocarcinoma cell line, was obtained from Bristol-Myers Squibb Pharmaceutical Research Institute (Seattle, Wash.). Greater than 70% of HBT 3477 cells stain intensely with L6. In HBT 3477 cells, bcl-2 is expressed and p53 is mutant, with a nonsense mutation in exon 10, resulting in a deletion in the region of the p53 protein that functions in tetramerization and in detection of double-stranded DNA breaks. HBT 3477 cells express functional αvβ5 integrin, but not αvβ3 integrin, as attachment to vitronectin is blocked by αvβ5-specific P1F6 antibody, but is not blocked by αvβ3-specific LM609 antibody.

HBT 3477 tumors [1] = assay: Tumoricidal effect in HBT 3477 breast cancer xenografts; assay type: in vivo, mice; conditions: for Cure (number of mice): worst response of 2-tumored mice, 84 days
Method: Mice. Female athymic Balb/c nu/nu mice (7–10 week old; Harlan Sprague Dawley, Inc., Frederick, Md.) were maintained according to University of California animal care guidelines. HBT 3477 cells (3.0×10^6), harvested in log phase, were injected subcutaneously into one side of the abdomen for therapy studies (except where noted) and into both sides for immunopathology studies. Injection of RIT was by tail vein and cyclo-(Arg-Gly-Asp-D-Phe-[N-Me]-Val) was delivered by intraperitoneal (i.p.) injection. “Day 0” was designated as the time of RIT injection or, for first cRGD pentapeptide injection, for cRGD pentapeptide only group. Mice were sacrificed by cervical dislocation for immunopathology studies at the times indicated, when tumor burden exceeded allowed limits, or at 84 days for therapy studies.
Control (No RIT) Treatment groups.
High Dose RIT Treatment groups.
Low Dose RIT Treatment groups. […] These doses were given on day 0, 1 hour prior to RIT, followed by 5 more doses on days 2, 4, 6, 8, and 10 (30 mice, all with 1 tumor each).
Tumoricidal effect. Tumors were measured with calipers in 3 orthogonal diameters 3 times per week. Tumor volume was calculated using the formula for hemiellipsoids (DeNardo et al. Clin. Cancer Res., 3:71–79 (1997)). Initial tumor volume was defined as the volume on the day before treatment. Tumors that completely regressed were considered to have a volume of zero. […] For mice bearing two tumors with differing responses, tumor response was described according to both tumor responses. Mice dying prior to 30 days from toxicity were excluded from tumor response results.
(§1) Statistical Analysis. Statistical analysis of mortality data for RIT and CMRIT method treated mice was performed using a Fisher Exact test with StatExact software to determine if mortality was different. Statistical analysis of therapy data was done using a Cochran Mantel Haenszel test to evaluate effect of RIT dose on outcome for RIT and CMRIT method groups. Comparison of cure rates to all other responses for RIT vs. CMRIT method groups was done by Fisher Exact test, with the best tumor response used for 2-tumored animals for statistical purposes. Statistical differences between immunopathology groups at the different time points were assessed by analysis of variance (ANOVA) (Fisher PLSD) using STATview software as appropriate, with p<0.05 considered significant.

[2] = Toxicity: mortality, weights and blood counts; assay type: in vivo; conditions: comparison as stated in the sentence
Method: Toxicity. Weights and blood counts were measured 2–3 times per week for 12 weeks post-injection or until death. Blood samples were collected from tail veins using 2 μL microcapillary pipets. Samples from mice within a dose group were pooled, and diluted 1:200 in phosphate-buffered saline (PBS, 0.9% saline/10 mM sodium phosphate, pH 7.6) for red blood cell (RBC) counts; 1:100 in 1% (w/v) ammonium oxalate for platelet counts; or 1:20 in 3% (w/v) acetic acid for white blood cell (WBC) counts.
as §1

HBT 3477 tumors [3] = assay: TUNEL analysis of total cell apoptosis in tumors; assay type: in vivo, mice; conditions: 1 day after treatment
Method: (§2) Cellular immunopathology groups. Unless otherwise noted, groups consisted of 2 mice, each bearing 2 tumors, for a total of 4 tumors analyzed at each time point. […] The tumors were removed, cut in half, frozen in optimal cutting temperature (O.C.T). medium, and stored at about −70° C. until sectioning (10-μm sections). All time points were evaluated for apoptosis by terminal deoxynucleotidyl transferase-mediated dUTP nick end labeling (TUNEL, Cavrieli, et al. J. Cell Bio., 119: 493–501 (1992)) analysis, and selected time points (untreated, 1,5 and 6 days) were assessed for differences in proliferation rate (Ki67) and microvessel density (CD31).
TUNEL analysis of total and endothelial apoptosis. Tumors were cut into 10-μm sections onto Fisher superplus slides (Fisher, Pittsburgh, Pa.), air-dried for 1 hour and frozen at about −70° C. until TUNEL analysis with ApopTag Red kit (rhodamine used as label, Intergen, Purchase, N.Y.) following the manufacturer's instructions subsequent to fixation for about 10 minutes in 1% paraformadehyde. After TUNEL, the slides were rinsed, and incubated overnight at 4° C. with a rat anti-mouse MAb against CD31 at 1:100 dilution (Pharmingen, San Diego, Calif.) to identify endothelial cells. Slides were rinsed and incubated for 1 hour with an anti-rat antibody linked to FITC (1:50 dilution) (Pharmingen). Slides were rinsed, dipped briefly in 4,6-diamidino-2-phenylindole (DAPI, 0.2 μg/ml) for background nuclear stain, rinsed again and mounted, followed by storage in the dark at about 4° C. until quantitation.
Quantitation of total apoptosis and endothelial apoptosis. An Olympus microscope equipped with a Chroma Pinkle Filter Set (Chroma, Brattleboro, Vt.) with excitation filters for UV, FITC and rhodamine and dual/triple bandpass filters to allow simultaneous viewing of multiple wavelengths, was used to quantify 6 randomly chosen X600 fields (150,000 μm^2/field) in non-necrotic regions of each section. Fields were chosen to cover the entire viewing area using DAPI label, which typically included about 300–350 cells. Total apoptosis was determined by the average number of positive nuclei per field for each tumor while endothelial apoptosis was determined using the same fields with a dual bandpass filter to count cells labeled by both FITC (CD31) and rhodamine (TUNEL). Fields were chosen from apparently non-necrotic areas of tumor sections, as HBT 3477 xenografts typically grow quickly in nude mice, doubling their volumes in 6 days, resulting in central necrosis of untreated tumors. As TUNEL may label necrotic cells, though less intensely, this strategy was chosen over a completely random process.

[4] = test system: endothelial cells in HBT 3477 tumors; assay: TUNEL/CD31 analysis of endothelial apoptosis in tumors; assay type: in vivo, mice
Method: as §2
TUNEL analysis of total and endothelial apoptosis. […] Slides were rinsed, dipped briefly in 4,6-diamidino-2-phenylindole (DAPI, 0.2 μg/ml) for background nuclear stain, rinsed again and mounted, followed by storage in the dark at about 4° C. until quantitation.
Quantitation of total apoptosis and endothelial apoptosis. An Olympus microscope equipped with a Chroma Pinkle Filter Set (Chroma, Brattleboro, Vt.) with excitation filters for UV, FITC and rhodamine and dual/triple bandpass filters to allow simultaneous viewing of multiple wavelengths, was used to quantify 6 randomly chosen X600 fields (150,000 μm^2/field) in non-necrotic regions of each section. […]

HBT 3477 tumors [5] = assay: Proliferation (Ki67) in tumors; assay type: in vivo, mice
Method: as §2
(§3) Proliferation and microvessel density Analyses. 10-μm sections of tumors from untreated and mice treated with cRGD pentapeptide, RIT and CMRIT method and sacrificed at 1, 5 and 6 days after treatment were fixed for 10 minutes in ice-cold acetone, rinsed in PBS, and briefly incubated in methanol with 0.6% H2O2 (5 minutes). After rinsing in PBS, sections were blocked for 10 minutes with 10% goat serum and 1% bovine serum albumin in PBS. Mouse anti-Ki67 MAb (Pharmingen, clone B56) was applied in blocking solution (6.25 μg/ml) and the slides were incubated at room temperature for 2 hours, followed by rinsing in PBS. Goat anti-mouse rhodamine-labeled or goat anti-mouse Cy-3-labeled antibody was applied (Jackson ImmunoResearch Laboratories, Inc, West Grove, Pa., 1:100) and the slides were incubated for 1 hour at room temperature. After rinsing in PBS the sections were incubated for 1 hour at room temperature with rat anti-mouse CD31 antibody (Pharmingen, 1:100), followed by rinsing in PBS and a subsequent 1 hour incubation with goat anti-rat FITC-labeled antibody (Pharmingen, 1:50). After rinsing in PBS, the slides were counterstained with DAPI (0.4 μg/ml) and mounted in Biomeda gel mount (Fisher) under coverslips. Quantitation of Ki67 was performed using an Olympus microscope at X1000 magnification for assessment of proliferation. The mean total number of Ki67-positive cells/field in a tumor was determined by counts from 6 fields per tumor chosen randomly by DAPI stain. Microvessel density was determined by counting the number of CD31-stained vessels per random field at X400 magnification. Any endothelial cell or cell cluster positive for CD31, which was separate from an adjacent cluster, was counted as one microvessel. Six randomly chosen fields per tumor section were used to establish an average for each tumor. Average microvessel density for a treatment group was determined by averaging the values from 4 tumors/group.

HBT 3477 tumors [6] = assay: Microvessel density (CD31) in tumors; assay type: in vivo, mice
Method: as §2, §3

[7] = test system: αvβ3-expressing M21 melanoma cells; conditions: stated in words; cited from earlier work

Compound: CC(C)[C@H]1C(=O)N[C@@H](CCCN=C(N)N)C(=O)NCC(=O)N[C@@H](CC(=O)O)C(=O)N[C@H](Cc2ccccc2)C(=O)N1C [cyclo-(Arg-Gly-Asp-D-Phe-[N-Me]-Val)]
- IC50 (HBT 3477 cells): ~5 µM
- effect on tumor growth (HBT 3477 tumors [1]; 6×250 μg doses given every other day, in words): No apparent effect
- cures (HBT 3477 tumors [1]; no RIT, 6 × 250 μg i.p.): 0%
- CR complete regression (number of mice) (HBT 3477 tumors [1]; no RIT, worst response): 0
- NR no regression (number of mice) (HBT 3477 tumors [1]; no RIT, worst response): 18
- PR partial regression (number of mice) (HBT 3477 tumors [1]; no RIT, worst response): 0
- Cure (number of mice) (HBT 3477 tumors [1]; no RIT): no cures
- Cure (number of mice) (HBT 3477 tumors [1]; no RIT, listed as cRGD pentapeptide): 0
- mortality or toxicity, in words [2]: No increased mortality or toxicity
- total cell apoptosis, percent of cells (HBT 3477 tumors [3]): 4.6%
- TUNEL-positive tumor and endothelial cells (total cells) (HBT 3477 tumors [3]; X600, about 350 cells/field): 16.2±1.89 cells/field
- endothelial apoptosis ([4]; 1 day after treatment): 2.5±0.5 cells/field
- endothelial apoptosis ([4]; 5 days after treatment): 2.4±0.7 cells/field
- Proliferating cells, average no. of Ki67-positive cells (HBT 3477 tumors [5]; Day 1, six fields per tumor at 1000X): 14 ± 2 f
- Proliferating cells, average no. of Ki67-positive cells (HBT 3477 tumors [5]; Day 5): 13 ± 1 f
- Microvessel density, average number ± SE of CD31 positive regions (HBT 3477 tumors [6]; Day 1, six fields per tumor at 400X): 12 ± 2
- Microvessel density, average number ± SE of CD31 positive regions (HBT 3477 tumors [6]; Day 5): 20 ± 4
- IC50 for αvβ3-expressing M21 melanoma cells [7]: low micromolar range
